Laboratory results published in PubChem BioAssay AID1919005 (Molecular Pharmacology Branch, DTP, NCI, 2023).
Where “and” joins values, the source holds several entries; their conditions need not be identical. Equal values may be shown once. Values belong to the compound of their own block, whether it stands above or below them.

System: 855422-203-R-J1-PDC complex spheroid growth
Test: Anticancer human tumor 855422-203-R-J1-PDC patient-derived bladder carcinoma cell line growth inhibition [AhR]
Conditions: for viability, T/C: stronger effect = lower value
Summary of the method: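 Complex tumor spheroids co-cultured with HUVEC and human MSC stroma; AhR antagonists tested in combination with standard-of-care and investigational agents. Top concentration at or near clinical Cmax (else 10 microM), half-log dilutions; growth expressed as percent test/control.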

[1] = curve of first compound, second compound 0.1 µM
[2] = curve of first compound, second compound 0.316 µM
[3] = curve of first compound, second compound 1 µM
[4] = curve of first compound, second compound 3.16 µM
[5] = curve of first compound, second compound 10 µM
[6] = second compound 0.1 µM, first compound 0.0316 µM
[7] = second compound 0.1 µM, first compound 0.1 µM
[8] = second compound 0.1 µM, first compound 0.316 µM
[9] = second compound 0.1 µM, first compound 1 µM
[10] = second compound 0.1 µM, first compound 3.16 µM
[11] = second compound 0.1 µM, first compound 10 µM
[12] = second compound 0.316 µM, first compound 0.0316 µM
[13] = second compound 0.316 µM, first compound 0.1 µM
[14] = second compound 0.316 µM, first compound 0.316 µM
[15] = second compound 0.316 µM, first compound 1 µM
[16] = second compound 0.316 µM, first compound 3.16 µM
[17] = second compound 0.316 µM, first compound 10 µM
[18] = second compound 1 µM, first compound 0.0316 µM
[19] = second compound 1 µM, first compound 0.1 µM
[20] = second compound 1 µM, first compound 0.316 µM
[21] = second compound 1 µM, first compound 1 µM
[22] = second compound 1 µM, first compound 3.16 µM
[23] = second compound 1 µM, first compound 10 µM
[24] = second compound 3.16 µM, first compound 0.0316 µM
[25] = second compound 3.16 µM, first compound 0.1 µM
[26] = second compound 3.16 µM, first compound 0.316 µM
[27] = second compound 3.16 µM, first compound 1 µM
[28] = second compound 3.16 µM, first compound 3.16 µM
[29] = second compound 3.16 µM, first compound 10 µM
[30] = second compound 10 µM, first compound 0.0316 µM
[31] = second compound 10 µM, first compound 0.1 µM
[32] = second compound 10 µM, first compound 0.316 µM
[33] = second compound 10 µM, first compound 1 µM
[34] = second compound 10 µM, first compound 3.16 µM
[35] = second compound 10 µM, first compound 10 µM
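Also: spheroids exposed to agents for seven days before readout.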
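For viability, T/C in this document: percent of DMSO vehicle control luminescence viability.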

Structure (SMILES): NS(=O)(=O)OCC1CC(n2ccc3c(NC4CCc5ccccc54)ncnc32)CC1O (stereo not drawn)
- viability, T/C (compound 0.0316 µM): 99.2% and 99.8% and 104%
- viability, T/C (compound 0.1 µM): 113% and 118% and 105%
- viability, T/C (compound 0.316 µM): 114% and 130% and 106%
- viability, T/C (compound 1 µM): 91.4% and 97.8% and 66.8%
- viability, T/C (compound 3.16 µM): 35.2% and 53.6% and 26.8%
- viability, T/C (compound 10 µM): 9.55% and 14.4% and 8.49%
- IC50 (curve of compound): 2.34 µM and 3.42 µM and 1.64 µM

Structure (SMILES): CCc1c2c(nc3ccc(O)cc13)-c1cc3c(c(=O)n1C2)COC(=O)[C@]3(O)CC + Cc1cncc(-c2nc(NCCc3c[nH]c4ccccc34)c3ncn(C(C)C)c3n2)c1
- IC50 [1]: 0.0029 µM
- IC50 [2]: 0.00198 µM
- IC50 [3]: 0.00181 µM
- IC50 [4]: 0.00109 µM
- IC50 [5]: < 0.000949 µM
- viability, T/C (second compound 0.1 µM, first compound 0.000949 µM): 99.6%
- viability, T/C (second compound 0.1 µM, first compound 0.003 µM): 48.6%
- viability, T/C (second compound 0.1 µM, first compound 0.00949 µM): 12.1%
- viability, T/C (second compound 0.1 µM, first compound 0.03 µM): 9.21%
- viability, T/C (second compound 0.1 µM, first compound 0.0949 µM): 6.44%
- viability, T/C (second compound 0.1 µM, first compound 0.3 µM): 3.75%
- viability, T/C (second compound 0.316 µM, first compound 0.000949 µM): 76.5%
- viability, T/C (second compound 0.316 µM, first compound 0.003 µM): 35%
- viability, T/C (second compound 0.316 µM, first compound 0.00949 µM): 9.9%
- viability, T/C (second compound 0.316 µM, first compound 0.03 µM): 10%
- viability, T/C (second compound 0.316 µM, first compound 0.0949 µM): 6.31%
- viability, T/C (second compound 0.316 µM, first compound 0.3 µM): 4.22%
- viability, T/C (second compound 1 µM, first compound 0.000949 µM): 72.3%
- viability, T/C (second compound 1 µM, first compound 0.003 µM): 32.6%
- viability, T/C (second compound 1 µM, first compound 0.00949 µM): 11.4%
- viability, T/C (second compound 1 µM, first compound 0.03 µM): 9.74%
- viability, T/C (second compound 1 µM, first compound 0.0949 µM): 6.96%
- viability, T/C (second compound 1 µM, first compound 0.3 µM): 4.13%
- viability, T/C (second compound 3.16 µM, first compound 0.000949 µM): 54.2%
- viability, T/C (second compound 3.16 µM, first compound 0.003 µM): 22.2%
- viability, T/C (second compound 3.16 µM, first compound 0.00949 µM): 10.7%
- viability, T/C (second compound 3.16 µM, first compound 0.03 µM): 4.55%
- viability, T/C (second compound 3.16 µM, first compound 0.0949 µM): 5.79%
- viability, T/C (second compound 3.16 µM, first compound 0.3 µM): 3.2%
- viability, T/C (second compound 10 µM, first compound 0.000949 µM): 3.26%
- viability, T/C (second compound 10 µM, first compound 0.003 µM): 2.2%
- viability, T/C (second compound 10 µM, first compound 0.00949 µM): 3.05%
- viability, T/C (second compound 10 µM, first compound 0.03 µM): 0.55%
- viability, T/C (second compound 10 µM, first compound 0.0949 µM): 1.43%
- viability, T/C (second compound 10 µM, first compound 0.3 µM): 1.83%

Structure (SMILES): CC1COCCN1c1cc(-c2ccnn2C)c2ccnc(-c3ccn[nH]3)c2n1 (stereo not drawn) + CC(CO)NC(=O)c1cc(-c2ccc(Cl)cc2)nn(-c2cnn(C)c2)c1=O
- IC50 [1]: 0.444 µM
- IC50 [2]: 0.347 µM
- IC50 [3]: 0.298 µM
- IC50 [4]: 0.237 µM
- IC50 [5]: 0.178 µM
- viability, T/C (second compound 0.1 µM, first compound 0.00316 µM): 94.2%
- viability, T/C (second compound 0.1 µM, first compound 0.01 µM): 85%
- viability, T/C [6]: 93.2%
- viability, T/C [7]: 94.2%
- viability, T/C [8]: 61.4%
- viability, T/C [9]: 22.8%
- viability, T/C (second compound 0.316 µM, first compound 0.00316 µM): 94.5%
- viability, T/C (second compound 0.316 µM, first compound 0.01 µM): 87.4%
- viability, T/C [12]: 78.5%
- viability, T/C [13]: 95.3%
- viability, T/C [14]: 52.5%
- viability, T/C [15]: 21.1%
- viability, T/C (second compound 1 µM, first compound 0.00316 µM): 97.3%
- viability, T/C (second compound 1 µM, first compound 0.01 µM): 89.4%
- viability, T/C [18]: 88%
- viability, T/C [19]: 84.9%
- viability, T/C [20]: 47.9%
- viability, T/C [21]: 17.6%
- viability, T/C (second compound 3.16 µM, first compound 0.00316 µM): 85.7%
- viability, T/C (second compound 3.16 µM, first compound 0.01 µM): 91.8%
- viability, T/C [24]: 90%
- viability, T/C [25]: 76.5%
- viability, T/C [26]: 41.2%
- viability, T/C [27]: 17.7%
- viability, T/C (second compound 10 µM, first compound 0.00316 µM): 85.5%
- viability, T/C (second compound 10 µM, first compound 0.01 µM): 94.7%
- viability, T/C [30]: 78.5%
- viability, T/C [31]: 68.9%
- viability, T/C [32]: 32.2%
- viability, T/C [33]: 19.8%

Structure (SMILES): CC1(C)CCC(CN2CCN(c3ccc(C(=O)NS(=O)(=O)c4ccc(NCC5CCOCC5)c([N+](=O)[O-])c4)c(Oc4cnc5[nH]ccc5c4)c3)CC2)=C(c2ccc(Cl)cc2)C1
- viability, T/C (compound 0.0316 µM): 98.4% and 107% and 103%
- viability, T/C (compound 0.1 µM): 95.8% and 106% and 98.7%
- viability, T/C (compound 0.316 µM): 108% and 103% (2×)
- viability, T/C (compound 1 µM): 97.6% and 116% and 104%
- viability, T/C (compound 3.16 µM): 108% and 118% and 100%
- viability, T/C (compound 10 µM): 13.2% and 22.8% and 8.45%
- IC50 (curve of compound): 6.19 µM and 6.99 µM and 5.93 µM

Structure (SMILES): COc1ccc([C@@H](O)c2cc(-c3ncnc4cc(N5CCOCC5)ccc34)c(F)cc2Cl)nn1 + Cc1ccccc1N=Nc1ccc(NC(=O)c2ccnn2C)c(C)c1
- IC50 [1]: > 10 µM
- IC50 [2]: > 10 µM
- IC50 [3]: > 10 µM
- IC50 [4]: > 10 µM
- IC50 [5]: 6.18 µM
- viability, T/C [6]: 99.2%
- viability, T/C [7]: 108%
- viability, T/C [8]: 98.3%
- viability, T/C [9]: 96.5%
- viability, T/C [10]: 87.3%
- viability, T/C [11]: 71.3%
- viability, T/C [12]: 107%
- viability, T/C [13]: 111%
- viability, T/C [14]: 99.8%
- viability, T/C [15]: 102%
- viability, T/C [16]: 90.1%
- viability, T/C [17]: 70.3%
- viability, T/C [18]: 107%
- viability, T/C [19]: 102%
- viability, T/C [20]: 106%
- viability, T/C [21]: 96.9%
- viability, T/C [22]: 87.8%
- viability, T/C [23]: 63.1%
- viability, T/C [24]: 95.9%
- viability, T/C [25]: 100%
- viability, T/C [26]: 95.7%
- viability, T/C [27]: 98.6%
- viability, T/C [28]: 77.1%
- viability, T/C [29]: 54.8%
- viability, T/C [30]: 87.8%
- viability, T/C [31]: 91.6%
- viability, T/C [32]: 86.1%
- viability, T/C [33]: 86%
- viability, T/C [34]: 62%
- viability, T/C [35]: 41.4%

More lines, main results first:

- IC50 (curve of compound): 7.02 µM and > 10 µM
Structure (SMILES): CC1COCCN1c1cc(C2(S(C)(=N)=O)CC2)nc(-c2ccnc3[nH]ccc23)n1 (stereo not drawn)
- viability, T/C (compound 0.0316 µM): 93.4% and 101% and 98.8%
- viability, T/C (compound 0.1 µM): 106% and 102% and 113%
- viability, T/C (compound 0.316 µM): 99.9% and 101% and 88.2%
- viability, T/C (compound 1 µM): 108% and 106% and 115%
- viability, T/C (compound 3.16 µM): 125% and 124% and 123%
- viability, T/C (compound 10 µM): 24.9% and 56.9% and 59.1%

- IC50 [1]: 3.99 µM
- IC50 [2]: 4.23 µM
- IC50 [3]: 4.26 µM
- IC50 [4]: 3.75 µM
- IC50 [5]: 3.25 µM
Structure (SMILES): O=C(C=Cc1cccc(S(=O)(=O)Nc2ccccc2)c1)NO + Cc1ccccc1N=Nc1ccc(NC(=O)c2ccnn2C)c(C)c1
- viability, T/C [6]: 104%
- viability, T/C [7]: 107%
- viability, T/C [8]: 109%
- viability, T/C [9]: 111%
- viability, T/C [10]: 61.7%
- viability, T/C [11]: 3.76%
- viability, T/C [12]: 105%
- viability, T/C [13]: 114%
- viability, T/C [14]: 111%
- viability, T/C [15]: 106%
- viability, T/C [16]: 65.2%
- viability, T/C [17]: 5.12%
- viability, T/C [18]: 97.9%
- viability, T/C [19]: 109%
- viability, T/C [20]: 111%
- viability, T/C [21]: 105%
- viability, T/C [22]: 66.2%
- viability, T/C [23]: 3.95%
- viability, T/C [24]: 96.8%
- viability, T/C [25]: 95.6%
- viability, T/C [26]: 104%
- viability, T/C [27]: 96.5%
- viability, T/C [28]: 58.1%
- viability, T/C [29]: 3.54%
- viability, T/C [30]: 87.2%
- viability, T/C [31]: 95.4%
- viability, T/C [32]: 88.7%
- viability, T/C [33]: 79.6%
- viability, T/C [34]: 51.3%
- viability, T/C [35]: 3.79%

- IC50 (curve of compound): > 3 µM
Structure (SMILES): CCN(c1cc(-c2ccc(CN3CCOCC3)cc2)cc(C(=O)NCc2c(C)cc(C)[nH]c2=O)c1C)C1CCOCC1
- viability, T/C (compound 0.00949 µM): 105% (2×) and 109%
- viability, T/C (compound 0.03 µM): 100% and 102% and 108%
- viability, T/C (compound 0.0949 µM): 100% and 105% and 99.7%
- viability, T/C (compound 0.3 µM): 94.2% and 98.2% and 97.3%
- viability, T/C (compound 0.949 µM): 96.8% and 91.9% and 88.2%
- viability, T/C (compound 3 µM): 78.1% and 92.2% and 80.9%
